Results published in the NIST ThermoML archive (doi:10.1016/j.jct.2009.08.009).
Numbers after ± are expanded uncertainties.

Assay: xn = mol fraction of the nth substance listed
Conditions: 101 kPa, Liquid; for viscosity: Capillary tube (Ostwald / Ubbelohde) method; for speed of sound: Sing-around technique in a fixed-path interferometer; for mass density: Vibrating tube method

CCOCCOCCO [3,6-dioxa-1-octanol] + CCCCCCCCCCO
Conditions	mass density [kg/m3]	speed of sound [m/s]	viscosity [mPa·s]
293.15 K, x1 = 0.0607	836.419 ± 0.13	1394.1 ± 0.9	11.4 ± 0.06
293.15 K, x1 = 0.109	841.997 ± 0.13	1392.3 ± 0.9	10.28 ± 0.055
293.15 K, x1 = 0.1561	847.628 ± 0.13	1390.6 ± 0.9	9.367 ± 0.05
293.15 K, x1 = 0.2105	854.439 ± 0.13	1388.9 ± 0.9	8.743 ± 0.047
293.15 K, x1 = 0.2599	862.044 ± 0.12	1387.4 ± 0.9	7.761 ± 0.043
293.15 K, x1 = 0.3089	867.859 ± 0.12	1386.6 ± 0.9	7.383 ± 0.041
293.15 K, x1 = 0.3533	874.329 ± 0.12	1385.8 ± 0.9	6.336 ± 0.036
293.15 K, x1 = 0.4923	896.636 ± 0.12	1385.3 ± 0.9	5.731 ± 0.033
293.15 K, x1 = 0.5986	916.267 ± 0.11	1387.2 ± 0.9	5.141 ± 0.031
293.15 K, x1 = 0.7153	940.786 ± 0.11	1392.6 ± 0.9	4.525 ± 0.027
293.15 K, x1 = 0.7918	959.008 ± 0.11	1398.6 ± 0.9	4.186 ± 0.025
293.15 K, x1 = 0.901	988.518 ± 0.1	1412.6 ± 0.9	3.899 ± 0.024
293.15 K, x1 = 1	–	–	3.626 ± 0.022
298.15 K, x1 = 0.0607	832.969 ± 0.13	1377 ± 0.9	9.658 ± 0.052
298.15 K, x1 = 0.109	838.521 ± 0.13	1375.3 ± 0.9	8.774 ± 0.048
298.15 K, x1 = 0.1561	844.112 ± 0.13	1373.6 ± 0.9	8.059 ± 0.044
298.15 K, x1 = 0.2105	850.88 ± 0.13	1371.8 ± 0.9	7.574 ± 0.042
298.15 K, x1 = 0.2599	858.441 ± 0.13	1370.5 ± 0.9	6.868 ± 0.039
298.15 K, x1 = 0.3089	864.217 ± 0.12	1369.6 ± 0.9	6.353 ± 0.036
298.15 K, x1 = 0.3533	870.65 ± 0.12	1368.9 ± 0.9	6.008 ± 0.035
298.15 K, x1 = 0.4923	892.825 ± 0.12	1368.4 ± 0.9	5.027 ± 0.03
298.15 K, x1 = 0.5986	912.348 ± 0.11	1370.3 ± 0.9	4.479 ± 0.027
298.15 K, x1 = 0.7153	936.739 ± 0.11	1375.7 ± 0.9	4.005 ± 0.024
298.15 K, x1 = 0.7918	954.872 ± 0.11	1381.7 ± 0.9	3.729 ± 0.023
298.15 K, x1 = 0.901	984.244 ± 0.1	1395.6 ± 0.9	3.449 ± 0.021
298.15 K, x1 = 1	–	–	3.278 ± 0.02
303.15 K, x1 = 0.0607	829.51 ± 0.13	1360.1 ± 0.8	8.114 ± 0.045
303.15 K, x1 = 0.109	835.031 ± 0.13	1358.4 ± 0.8	7.312 ± 0.041
303.15 K, x1 = 0.1561	840.589 ± 0.13	1356.8 ± 0.8	6.739 ± 0.038
303.15 K, x1 = 0.2105	847.315 ± 0.13	1355.1 ± 0.8	6.387 ± 0.037
303.15 K, x1 = 0.2599	854.826 ± 0.13	1353.7 ± 0.8	5.858 ± 0.034
303.15 K, x1 = 0.3089	860.567 ± 0.12	1352.8 ± 0.8	5.366 ± 0.032
303.15 K, x1 = 0.3533	866.962 ± 0.12	1352.1 ± 0.8	5.083 ± 0.03
303.15 K, x1 = 0.4923	889.005 ± 0.12	1351.7 ± 0.8	4.338 ± 0.026
303.15 K, x1 = 0.5986	908.42 ± 0.12	1353.7 ± 0.8	3.859 ± 0.023
303.15 K, x1 = 0.7153	932.679 ± 0.11	1358.9 ± 0.8	3.458 ± 0.021
303.15 K, x1 = 0.7918	950.728 ± 0.11	1364.9 ± 0.9	3.235 ± 0.02
303.15 K, x1 = 0.901	979.965 ± 0.1	1378.8 ± 0.9	3.021 ± 0.019
303.15 K, x1 = 1	–	–	2.862 ± 0.018
308.15 K, x1 = 0.0607	826.037 ± 0.14	1343.3 ± 0.8	6.698 ± 0.038
308.15 K, x1 = 0.109	831.525 ± 0.13	1341.6 ± 0.8	6.116 ± 0.035
308.15 K, x1 = 0.1561	837.051 ± 0.13	1340.1 ± 0.8	5.838 ± 0.034
308.15 K, x1 = 0.2105	843.734 ± 0.13	1338.4 ± 0.8	5.38 ± 0.032
308.15 K, x1 = 0.2599	851.204 ± 0.13	1336.9 ± 0.8	4.826 ± 0.029
308.15 K, x1 = 0.3089	856.908 ± 0.13	1336.2 ± 0.8	4.528 ± 0.027
308.15 K, x1 = 0.3533	863.255 ± 0.13	1335.5 ± 0.8	4.319 ± 0.026
308.15 K, x1 = 0.4923	885.17 ± 0.12	1335.1 ± 0.8	3.697 ± 0.023
308.15 K, x1 = 0.5986	904.477 ± 0.12	1337 ± 0.8	3.346 ± 0.02
308.15 K, x1 = 0.7153	928.613 ± 0.11	1342.4 ± 0.8	2.978 ± 0.018
308.15 K, x1 = 0.7918	946.566 ± 0.11	1348.3 ± 0.8	2.817 ± 0.017
308.15 K, x1 = 0.901	975.664 ± 0.1	1362.1 ± 0.9	2.67 ± 0.017
308.15 K, x1 = 1	–	–	2.507 ± 0.016

CCOCCOCCO [3,6-dioxa-1-octanol] + CCCCCCCCO
Conditions	mass density [kg/m3]	speed of sound [m/s]	viscosity [mPa·s]
293.15 K, x1 = 0.0518	832.339 ± 0.13	1364.1 ± 0.9	7.468 ± 0.042
293.15 K, x1 = 0.1011	839.204 ± 0.13	1363.5 ± 0.9	6.913 ± 0.039
293.15 K, x1 = 0.1625	848.155 ± 0.13	1363.1 ± 0.9	6.159 ± 0.035
293.15 K, x1 = 0.1944	853.018 ± 0.13	1363.7 ± 0.9	5.913 ± 0.034
293.15 K, x1 = 0.2538	862.076 ± 0.13	1364.5 ± 0.9	5.872 ± 0.034
293.15 K, x1 = 0.3165	872.254 ± 0.12	1365.7 ± 0.9	5.104 ± 0.031
293.15 K, x1 = 0.3685	880.933 ± 0.12	1370.8 ± 0.9	4.837 ± 0.029
293.15 K, x1 = 0.4975	904.111 ± 0.12	1377.4 ± 0.9	4.361 ± 0.026
293.15 K, x1 = 0.6048	925.139 ± 0.11	1387.7 ± 0.9	4.08 ± 0.025
293.15 K, x1 = 0.7202	949.653 ± 0.11	1399.5 ± 0.9	3.846 ± 0.023
293.15 K, x1 = 0.8165	971.878 ± 0.13	1415.1 ± 0.9	3.739 ± 0.023
293.15 K, x1 = 0.9144	996.047 ± 0.25	1349.4 ± 0.9	3.66 ± 0.022
293.15 K, x1 = 1	–	–	3.626 ± 0.022
298.15 K, x1 = 0.0518	828.835 ± 0.14	1347.1 ± 0.8	6.198 ± 0.036
298.15 K, x1 = 0.1011	835.659 ± 0.13	1346.5 ± 0.8	6.03 ± 0.035
298.15 K, x1 = 0.1625	844.559 ± 0.13	1346.3 ± 0.8	5.405 ± 0.032
298.15 K, x1 = 0.1944	849.396 ± 0.13	1346.7 ± 0.8	5.188 ± 0.031
298.15 K, x1 = 0.2538	858.398 ± 0.13	1347.6 ± 0.8	4.799 ± 0.029
298.15 K, x1 = 0.3165	868.522 ± 0.12	1348.9 ± 0.8	4.489 ± 0.027
298.15 K, x1 = 0.3685	877.154 ± 0.12	1354.1 ± 0.8	4.279 ± 0.026
298.15 K, x1 = 0.4975	900.211 ± 0.12	1360.7 ± 0.9	3.918 ± 0.024
298.15 K, x1 = 0.6048	921.137 ± 0.11	1370.9 ± 0.9	3.612 ± 0.022
298.15 K, x1 = 0.7202	945.535 ± 0.12	1382.7 ± 0.9	3.431 ± 0.021
298.15 K, x1 = 0.8165	991.74 ± 0.084	1398.2 ± 0.9	3.328 ± 0.02
298.15 K, x1 = 0.9144	938.234 ± 0.11	1332.2 ± 0.9	3.277 ± 0.02
298.15 K, x1 = 1	–	–	3.278 ± 0.02
303.15 K, x1 = 0.0518	825.317 ± 0.14	1330.3 ± 0.8	5.429 ± 0.032
303.15 K, x1 = 0.1011	832.097 ± 0.13	1329.8 ± 0.8	5.005 ± 0.03
303.15 K, x1 = 0.1625	840.951 ± 0.13	1329.5 ± 0.8	4.636 ± 0.028
303.15 K, x1 = 0.1944	845.762 ± 0.13	1329.6 ± 0.8	4.404 ± 0.027
303.15 K, x1 = 0.2538	854.713 ± 0.13	1330.1 ± 0.8	4.295 ± 0.026
303.15 K, x1 = 0.3165	864.78 ± 0.13	1330.9 ± 0.8	3.845 ± 0.023
303.15 K, x1 = 0.3685	873.364 ± 0.12	1332.3 ± 0.8	3.67 ± 0.022
303.15 K, x1 = 0.4975	896.3 ± 0.12	1337.5 ± 0.8	3.396 ± 0.021
303.15 K, x1 = 0.6048	917.122 ± 0.11	1343.9 ± 0.8	3.141 ± 0.019
303.15 K, x1 = 0.7202	941.409 ± 0.11	1354.3 ± 0.9	3.045 ± 0.019
303.15 K, x1 = 0.8165	963.444 ± 0.12	1381.3 ± 0.9	2.904 ± 0.018
303.15 K, x1 = 0.9144	987.41 ± 0.12	1315 ± 0.8	2.848 ± 0.018
303.15 K, x1 = 1	–	–	2.862 ± 0.018
308.15 K, x1 = 0.0518	821.777 ± 0.14	1313.7 ± 0.8	4.542 ± 0.028
308.15 K, x1 = 0.1011	828.522 ± 0.14	1313.2 ± 0.8	4.219 ± 0.026
308.15 K, x1 = 0.1625	837.324 ± 0.13	1312.9 ± 0.8	3.897 ± 0.024
308.15 K, x1 = 0.1944	842.106 ± 0.13	1312.9 ± 0.8	3.781 ± 0.023
308.15 K, x1 = 0.2538	851.006 ± 0.13	1313.5 ± 0.8	3.548 ± 0.022
308.15 K, x1 = 0.3165	861.019 ± 0.13	1314.5 ± 0.8	3.327 ± 0.02
308.15 K, x1 = 0.3685	869.558 ± 0.12	1315.7 ± 0.8	3.169 ± 0.019
308.15 K, x1 = 0.4975	892.371 ± 0.12	1320.9 ± 0.8	2.928 ± 0.018
308.15 K, x1 = 0.6048	913.092 ± 0.11	1327.4 ± 0.8	2.721 ± 0.017
308.15 K, x1 = 0.7202	937.267 ± 0.11	1337.7 ± 0.8	2.6 ± 0.016
308.15 K, x1 = 0.8165	959.204 ± 0.1	1349.3 ± 0.9	2.532 ± 0.016
308.15 K, x1 = 0.9144	983.069 ± 0.099	1364.5 ± 0.9	2.493 ± 0.016
308.15 K, x1 = 1	–	–	2.507 ± 0.016
